We go through two molecules from patent US20140206028A1, “Stable Electrically Active Neurons from Adult Tissue” (University of Central Florida Research Foundation, Inc., priority 2011, published 2014).

Common to all, as to type: cell-based
Experiment [1] has as its system adult rat hippocampal neurons on MEAs. Put plainly: MEA recording of spontaneous activity, adult hippocampal neurons. The note with it: 25 μM antagonist, adult cultures. The procedure:
Adult neurons were extracted, dissociated, cultured, and maintained. Briefly, the hippocampi of adult rats (Charles River, age 6-12 months) were dissected and homogenized into small tissue fragments in cold medium (˜4° C.) consisting of Hibernate-A, glutamax, and antibiotic-antimycotic. The tissue was digested for 30 minutes at 37° C. in calcium-free Hibernate-A (HA) containing 6 mg papain/12 ml (HA no calcium). Following digestion, the tissue was washed three times with cold HA media to remove any active enzyme. Next, the tissue was suspended in Dissociation Medium and broken apart into individual cells through mechanical dissociation with fire-polished Pasteur pipettes. The dissociated cells were suspended in Plating medium and then deposited onto DETA (N-1 [3-(trimethoxysilyl) propyl]-diethylenetriamine, United Chemical Technologies Inc., Bristol, Pa., T2910KG) coated glass cover slips. After 30-45 minutes, the cover slips were washed with warm HA by gently swirling the medium to remove tissue debris. Following this washing step, fresh Plating medium was applied and remained for the first 3 div. On 3 div the medium was removed and replaced by Maintenance Medium with 5 μM Roscovitine (Rosc, Sigma, R7772). All research was approved by the Institutional Animal Care and Use Committee at the University of Central Florida and conformed to NIH guidelines. After 4 div, the adult hippocampal neurons on the DETA cover slips were passaged to MEAs. Briefly, neurons were dislodged from the DETA with trypsin (0.05% trypsin/EDTA in HBSS, Gibco, 25200). Trypsin inhibitor (trypsin inhibitor, soybean, Gibco, 17075-029) in Dissociation medium at 0.5 mg per ml deactivated the trypsin. The dislodged neurons were collected and spun at 500×g for 5 minutes. The supernatant of deactivated trypsin in HBSS was discarded, and the neuronal cell pellet was suspended in 1 ml Plating medium. Immunocytochemistry and Laser Scanning Confocal Microscopy
(§1) The MEA chips (Axion Biosystems) provided 64 platinum-black coated gold-electrodes with a diameter of 30 μm, organized in an 8 by 8 array with 200 μm pitch. Clean MEAs were sterilized with 70% alcohol and then incubated with 1 ml poly-L-lysine (100 μg/ml) for 30 minutes. An area just large enough to cover all electrodes was additionally coated with 3 μl laminin (2 μg/ml) over night. Embryonic rat hippocampal neurons were plated directly on MEAs at a density of 500 cells/mm2. Adult rat hippocampal neurons were first cultured on DETA coated cover slips for recovery. […] After 4 days on DETA cover slips, the adult neurons were passaged onto MEAs at a density of 500 cells/mm2. Every 2-3 days, half the medium was replaced with fresh Maintenance medium supplemented with 2 μM Rosc.
(§2) MEAs were incubated with their covers off to allow gas exchange but covered upon removal from the incubator to reduce contamination, media evaporation, and gas exchange while recordings were taken. The head stage of the recording system (Axion Biosystems) was pre-heated to 37° C. before MEAs with adult or embryonic hippocampal cultures were investigated. The activity of neuronal networks was recorded with 25 kHz using the software Axion's Integrated Studio (AxIS). Signal amplitudes 6 times larger than the standard deviation of the base line were detected as action-potential spikes. The spike data was then imported into Matlab 2010b (The MathWorks) for further processing.
Baseline spontaneous activity in adult and embryonic neurons was recorded for 3 minutes on 5 consecutive days per week, starting on 7 div. The synaptic antagonists D-(−)-2-Amino-5-phosphonopentanoic acid (D-APS, 25 μM, Tocris Bioscience, 0106), 6-Cyano-7-nitroquinoxaline-2,3-dione disodium (CNQX, 25 μM, Tocris Bioscience, 1045), and (−)-Bicuculline methobromide (Bicuculline, 50 μM, Tocris Bioscience, 0109) were separately administered to both adult and embryonic neurons on 14 div and at various time points between 30 and 60 div. […]

Experiment [2] concerns embryonic rat hippocampal neurons on MEAs. As to the kind of experiment: MEA recording of spontaneous activity, embryonic hippocampal neurons. The following applies: 25 μM antagonist, embryonic cultures. Here is the method: Embryonic hippocampal neurons were cultured. Pregnant rats, 18 days in gestation, obtained from Charles River were euthanized with carbon dioxide and the fetuses were collected in ice-cold Hibernate E (BrainBits)/B27/Glutamaxtm/Antibiotic-antimycotic (Invitrogen) (Dissecting Medium). Each fetus was decapitated, and the whole brain was transferred to fresh ice cold dissecting medium. After isolation, the hippocampi were collected in a fresh tube of dissecting medium. The tissue was enzymatically digested at 37° C. for 10 minutes with papain (Worthington 3119), 12 mg/6 ml Hibernate-E (-calcium) (BrainBits)+0.5 mM Glutamax (Invitrogen). Hippocampal neurons were obtained by triturating the tissue using a fire-polished Pasteur pipette. After centrifugation, the cells were re-suspended in culture medium (Neurobasal/B27/Glutamaxtm/antibiotic-antimycotic) and plated on MEAs. All research was approved by the Institutional Animal Care and Use Committee at the University of Central Florida and conformed to NIH guidelines.
as §1, §2
Baseline spontaneous activity in adult and embryonic neurons was recorded for 3 minutes on 5 consecutive days per week, starting on 7 div. The synaptic antagonists D-(−)-2-Amino-5-phosphonopentanoic acid (D-APS, 25 μM, Tocris Bioscience, 0106), 6-Cyano-7-nitroquinoxaline-2,3-dione disodium (CNQX, 25 μM, Tocris Bioscience, 1045), and (−)-Bicuculline methobromide (Bicuculline, 50 μM, Tocris Bioscience, 0109) were separately administered to both adult and embryonic neurons on 14 div and at various time points between 30 and 60 div. Three minute recordings were made to quantify the effect from these antagonists on spontaneous activity. If necessary, additional baselines were recorded prior to the administration of antagonists. Each experiment was followed by a complete washout of the antagonist and replacement with fresh medium.
Data analysis was performed off-line using unpublished Matlab functions to evaluate spike files created during each MEA recording. […] In about 25% of the adult cultures and 14% of the embryonic cultures, portions of the neuronal networks detached from the substrate over time and especially after about 6 weeks. In order to accommodate the different numbers of active channels between MEAs, all values were corrected for the amount of active channels on an MEA. […]

Experiment [3] deals with adult rat hippocampal neurons. Put plainly: Whole-cell patch-clamp electrophysiology of cultured adult hippocampal neurons (electrical recovery). The following applies: cycloheximide during incubation of confluent neurons with 25 μM glutamate.
Protocol: Whole-cell, patch-clamp recordings were performed at room temperature. pH was adjusted to 7.3 with HEPES acid and base, ion concentrations with NaCl to approximately 130 mM, and osmolarity of 290-300 mOsm. Cells were visualized on the stage with a Zeiss Axioscope, 2 FS Plus, upright microscope in maintenance culture medium. Patch pipettes (4-8 M′Ω) were filled with intracellular solution (K-gluconate 140 mM, EGTA 1 mM, MgCl2 2 mM, Na2ATP 5 mM, HEPES 10 mM; pH 7.2), osmolarity approximately 260 mOsm. Voltage clamp and current clamp experiments were performed with a Multiclamp 700A (MDS Analytical Devices) amplifier. Signals were filtered at 3 kHz and digitized at 20 kHz with an Axon Digidata 1322A interface. Data recordings and analysis were performed with pClamp software. Whole-cell capacitance and series resistance were compensated electronically. Only cells with access resistance less than 22 M′Ω were analyzed. Inward currents that had the characteristics of fast sodium currents, and outward currents that had the characteristics of potassium currents were measured in voltage clamp mode using voltage steps of 10 mV from a −70 mV holding potential. Action potentials were measured with 1 s depolarizing current injections to elicit action potentials from a −70 mV holding potential. Cells were morphologically selected for electrophysiological characterization. […]

Each structure is given as a SMILES string.

In the case of `N[C@H](CCCP(=O)(O)O)C(=O)O` [D-AP5, D-(−)-2-Amino-5-phosphonopentanoic acid], in experiment [1] (14 div), the “loss of channel activity (active channels) versus baseline” value (“loss … (active channels) versus baseline” below) is recorded as 90±6% and the “lowering of action potential frequency versus baseline” value was 76±8%. In addition, in experiment [1] (30-60 div), the “loss … (active channels) versus baseline” value stood at 82±6% and the “lowering (drop) of action potential frequency versus baseline” value was 82±17%. Besides, in experiment [2] (14 div), the “increase of firing rate versus baseline” value is recorded as 90±6% and the “loss … (active channels) versus baseline” value turned out to be 65±4%. For the same molecule, in experiment [2] (30-60 div), the “decrease (drop) of firing rate versus baseline” value was determined as 70±7% and the “loss … (active channels) versus baseline” value stood at 36±7%.

Take `C[C@@H]1C[C@@H]([C@H](O)CC2CC(=O)NC(=O)C2)C(=O)[C@@H](C)C1` [cycloheximide]: the “glutamate-induced improvements in neuronal electrical activity” value in experiment [3] is “completely blocked”.
